These results are taken from patent US11753407B2, “Compounds for treating spinal muscular atrophy” (PTC Therapeutics, Inc., priority 2012, dated 2023).

Bounds are passed on as bounds.

Series [1] deals with SMN2 minigene mRNA (SMN2-A minigene) in HEK293H cells. In words: SMN2 minigene mRNA splicing RT-qPCR assay in cultured cells. The note with it: Homo sapiens, HEK293-H; concentration increasing full length SMN2 mRNA 1.5-fold relative to vehicle-treated cells; HEK293H cells with SMN2-A minigene, 24 hours, 7-point concentration data; read-out: EC1.5x for production of full length SMN2 mRNA. It counts as cell-based, human. The method in brief: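 HEK293H cells stably carrying SMN2-A minigene treated with compounds (7-point, 3.16-fold dilutions, duplicates) for 24 h at 37 °C. Full-length exon 7-containing minigene mRNA measured by multiplex RT-qPCR with GAPDH, normalized and expressed relative to vehicle (modified ΔΔCt); EC1.5× is concentration giving 1.5-fold increase.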
(In general: In qPCR the cycle at which signal appears reflects the starting amount.)

The test system of series [2] is Smn protein in SMA patient fibroblast cells (GM03813). In words: Smn protein assay in cultured cells (SMN HTRF). Format: cell-based, human. The note with it: SMA patient fibroblast cells, 48 hours; for EC1.5x for Smn protein expression: 7-point concentration curve, SMN HTRF, concentration producing 1.5 times Smn protein vs DMSO vehicle control; for maximum fold (Fold) increase of Smn protein: 7-point concentration data, fold relative to vehicle control. Summed up: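 SMA patient fibroblasts (5,000/well, DMEM-10% FBS) treated 48 h at 37° C with 7-point, 3.16-fold compound series in triplicate; lysates read by SMN HTRF (665/620 nm ratio). Fold Smn increase over DMSO vehicle derived; EC1.5× is concentration giving 1.5-fold Smn, with maximum fold also reported.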
(In TR-FRET formats the signal depends on donor and acceptor labels being close together.)

With `CCCN(C)C1CC=C(c2ccc3nc(-c4ccc(OC)c(OC)c4)cc(=O)n3c2)CC1` (stereo not drawn) [Compound 369, 2-(3,4-dimethoxyphenyl)-7-{4-[methyl(propyl)amino]cyclohex-1-en-1-yl}-4H-pyrido[1,2-a]pyrimidin-4-one], the melting point – broadly, the temperature of the solid-liquid transition – is 116 to 118 °C. In addition, in series [1], the EC (1.5-fold increase) was under 0.1 µM. In series [2], the “EC1.5x for Smn protein expression” value was “** (an EC1.5× between >1 μM and ≤3 μM is indicated by two stars (**))”; the “maximum fold (Fold) increase of Smn protein” value (from here on “maximum fold (Fold) increase”) was “*** (a fold increase between >1.35 and ≤1.5 is indicated by three stars (***))”.

`COc1ccc(-c2cc(=O)n3cc(N4CCN[C@H](C)C4)cc(C)c3n2)cc1OC` [Compound 314, 2-(3,4-dimethoxyphenyl)-9-methyl-7-[(3R)-3-methylpiperazin-1-yl]-4H-pyrido[1,2-a]pyrimidin-4-one] returned a melting point of 177 to 184 °C. Besides, the EC (1.5-fold increase) in series [1] is under 0.1 µM. For the same compound, in series [2], the “EC1.5x for Smn protein expression” value was “*** (an EC1.5× between >0.3 μM and ≤1 μM is indicated by three stars (***))”; the “maximum fold (Fold) increase” value was “**** (a fold increase between >1.5 and ≤1.65 is indicated by four stars (****))”.

In turn, `CCc1nc(C)cn2nc(-c3cc(=O)n4cc(N5CCN[C@@H](C)C5)cc(C)c4n3)cc12` [Compound 787, 2-(4-ethyl-6-methylpyrazolo[1,5-a]pyrazin-2-yl)-9-methyl-7-[(3S)-3-methylpiperazin-1-yl]-4H-pyrido[1,2-a]pyrimidin-4-one] registered a melting point of 227 to 236 °C. Further, the EC (1.5-fold increase) in series [1] was under 0.1 µM. In series [2], the “EC1.5x for Smn protein expression” value was “**** (an EC1.5x≤0.3 μM is indicated by four stars (****))” and the “maximum fold (Fold) increase” value is “***** (a fold increase >1.65 is indicated by five stars (*****))”.

On to `C[C@@H]1CN(c2ccc3nc(-c4ccc5c(cnn5C)c4)cc(=O)n3c2)C[C@H](C)N1` [Compound 552, 7-[(3R,5S)-3,5-dimethylpiperazin-1-yl]-2-(1-methyl-1H-indazol-5-yl)-4H-pyrido[1,2-a]pyrimidin-4-one], for which the melting point lay within 240 to 242 °C. Besides, the EC (1.5-fold increase) in series [1] was in the range of 0.3 to 1 µM. Also, in series [2], the “EC1.5x for Smn protein expression” value is “*** (an EC1.5× between >0.3 μM and ≤1 μM is indicated by three stars (***))”; the “maximum fold (Fold) increase” value was “**** (a fold increase between >1.5 and ≤1.65 is indicated by four stars (****))”.

`CCc1nc(C)cn2nc(-c3cc(=O)n4cc(C5CCN(C6CC6)CC5)ccc4n3)cc12` [Compound 680, 7-(1-cyclopropylpiperidin-4-yl)-2-(4-ethyl-6-methylpyrazolo[1,5-a]pyrazin-2-yl)-4H-pyrido[1,2-a]pyrimidin-4-one] showed a melting point of 196 to 199 °C. Moreover, in series [1], the EC (1.5-fold increase) is under 0.1 µM. Moreover, in series [2], the “EC1.5x for Smn protein expression” value was “**** (an EC1.5x≤0.3 μM is indicated by four stars (****))” and the “maximum fold (Fold) increase” value is given as “***** (a fold increase >1.65 is indicated by five stars (*****))”.

`CN1CC=C(c2cn3c(=O)cc(-c4ccc5c(cnn5C)c4)nc3cn2)CC1` [Compound 506, 2-(1-methyl-1H-indazol-5-yl)-7-(1-methyl-1,2,3,6-tetrahydropyridin-4-yl)-4H-pyrazino[1,2-a]pyrimidin-4-one] gave a melting point of 234 to 236 °C. For the same compound, the EC (1.5-fold increase) in series [1] is under 0.1 µM. In series [2], the “EC1.5x for Smn protein expression” value is reported as “**** (an EC1.5x≤0.3 μM is indicated by four stars (****))”; the “maximum fold (Fold) increase” value is “**** (a fold increase between >1.5 and ≤1.65 is indicated by four stars (****))”.

The compound `COc1ccc(-c2cc(=O)n3cc(N4CCC(NCCO)CC4)cc(C)c3n2)cc1OC` [Compound 433, 2-(3,4-dimethoxyphenyl)-7-{4-[(2-hydroxyethyl)amino]piperidin-1-yl}-9-methyl-4H-pyrido[1,2-a]pyrimidin-4-one] showed a melting point of 185 to 193 °C. For the same compound, the EC (1.5-fold increase) in series [1] is under 0.1 µM. Moreover, the “maximum fold (Fold) increase” value in series [2] was “*** (a fold increase between >1.35 and ≤1.5 is indicated by three stars (***))”.

`COc1ncc(-c2cc(=O)n3cc(N4CCN[C@@H](C)C4)ccc3n2)cc1F` [Compound 173, 2-(5-fluoro-6-methoxypyridin-3-yl)-7-[(3S)-3-methylpiperazin-1-yl]-4H-pyrido[1,2-a]pyrimidin-4-one] returned a melting point of 175 to 180 °C. For the same compound, the EC (1.5-fold increase) in series [1] is 0.3 to 1 µM. Further, the “maximum fold (Fold) increase” value in series [2] was “** (a fold increase between >1.2 and ≤1.35 is indicated by two stars (**))”.

As for `Cc1cc(-c2cc(=O)n3cc(N4CCN(C)CC4)ccc3n2)cc2cn(C)nc12` [Compound 768, 2-(2,7-dimethyl-2H-indazol-5-yl)-7-(4-methylpiperazin-1-yl)-4H-pyrido[1,2-a]pyrimidin-4-one], the melting point lay within 216 to 218 °C. The EC (1.5-fold increase) in series [1] is under 0.1 µM. Also, in series [2], the “EC1.5x for Smn protein expression” value is “**** (an EC1.5x≤0.3 μM is indicated by four stars (****))” and the “maximum fold (Fold) increase” value is “***** (a fold increase >1.65 is indicated by five stars (*****))”.

Regarding `Cc1cn2nc(-c3cc(=O)n4cc(N5CCNCC5)ccc4n3)cc2c(N(C)C)n1` [Cpd 688, 2-[4-(dimethylamino)-6-methylpyrazolo[1,5-a]pyrazin-2-yl]-7-(piperazin-1-yl)-4H-pyrido[1,2-a]pyrimidin-4-one], the melting point was in the range of 245 to 248 °C. Further, the EC (1.5-fold increase) in series [1] fell in the range of 1 to 3 µM. Also, in series [2], the “EC1.5x for Smn protein expression” value was “** (an EC1.5× between >1 μM and ≤3 μM is indicated by two stars (**))”; the “maximum fold (Fold) increase” value is “*** (a fold increase between >1.35 and ≤1.5 is indicated by three stars (***))”.

`CCN1CCC(c2ccc3nc(-c4ccc5c(cnn5C)c4)cc(=O)n3c2)CC1` [Compound 604, 7-(1-ethylpiperidin-4-yl)-2-(1-methyl-1H-indazol-5-yl)-4H-pyrido[1,2-a]pyrimidin-4-one] showed a melting point of 184 to 186 °C. The EC (1.5-fold increase) in series [1] was 0.3 to 1 µM. Besides, in series [2], the “EC1.5x for Smn protein expression” value was “**** (an EC1.5x≤0.3 μM is indicated by four stars (****))” and the “maximum fold (Fold) increase” value is reported as “***** (a fold increase >1.65 is indicated by five stars (*****))”.

With `Cc1nc2ccc(-c3cc(=O)n4cc(N5CCNC(C)(C)C5)ccc4n3)cc2o1` [Compound 194, 7-(3,3-dimethylpiperazin-1-yl)-2-(2-methyl-1,3-benzoxazol-6-yl)-4H-pyrido[1,2-a]pyrimidin-4-one], the melting point fell in the range of 160 to 162 °C. Moreover, the EC (1.5-fold increase) in series [1] was under 0.1 µM. In series [2], the “EC1.5x for Smn protein expression” value is on record as “**** (an EC1.5x≤0.3 μM is indicated by four stars (****))” and the “maximum fold (Fold) increase” value was “***** (a fold increase >1.65 is indicated by five stars (*****))”.

In the case of `CCc1nc(C)cn2nc(-c3cc(=O)n4cc(C5CCN(CC)CC5)ncc4n3)cc12` [Compound 655, 2-(4-ethyl-6-methylpyrazolo[1,5-a]pyrazin-2-yl)-7-(1-ethylpiperidin-4-yl)-4H-pyrazino[1,2-a]pyrimidin-4-one], the melting point fell in the range of 273 to 275 °C. Further, the EC (1.5-fold increase) in series [1] was under 0.1 µM. In addition, in series [2], the “EC1.5x for Smn protein expression” value is recorded as “**** (an EC1.5x≤0.3 μM is indicated by four stars (****))”; the “maximum fold (Fold) increase” value was “**** (a fold increase between >1.5 and ≤1.65 is indicated by four stars (****))”.

Compound `CCCc1nc(C)cn2nc(-c3cc(=O)n4cc(N5CCN[C@@H](C)C5)ccc4n3)cc12` [Compound 728, 7-[(3S)-3-methylpiperazin-1-yl]-2-(6-methyl-4-propylpyrazolo[1,5-a]pyrazin-2-yl)-4H-pyrido[1,2-a]pyrimidin-4-one] had a melting point of 195 to 197 °C. The EC (1.5-fold increase) in series [1] lay within 0.1 to 0.3 µM. For the same compound, in series [2], the “EC1.5x for Smn protein expression” value is given as “**** (an EC1.5x≤0.3 μM is indicated by four stars (****))” and the “maximum fold (Fold) increase” value is reported as “***** (a fold increase >1.65 is indicated by five stars (*****))”.

The compound `O=c1cc(-c2ccccc2F)nc2ccc(N3CCNCC3)cn12` [Compound 51, 2-(2-fluorophenyl)-7-(piperazin-1-yl)-4H-pyrido[1,2-a]pyrimidin-4-one] gave a melting point of 142 to 146 °C. For the same compound, in series [1], the EC (1.5-fold increase) lay in the range of 3 to 30 µM. The “maximum fold (Fold) increase” value in series [2] is “** (a fold increase between >1.2 and ≤1.35 is indicated by two stars (**))”.

`COc1ccc(-c2cc(=O)n3cc(N4CCN[C@H](C)C4)ccc3n2)cc1C(F)(F)F` [Compound 68, 2-[4-methoxy-3-(trifluoromethyl)phenyl]-7-[(3R)-3-methylpiperazin-1-yl]-4H-pyrido[1,2-a]pyrimidin-4-one] gave a melting point of 205 to 212 °C. For the same compound, the EC (1.5-fold increase) in series [1] is 0.1 to 0.3 µM. The “maximum fold (Fold) increase” value in series [2] is “** (a fold increase between >1.2 and ≤1.35 is indicated by two stars (**))”.

With `CCCNC1CCN(c2cc(C)c3nc(-c4ccc(OC)c(OC)c4)cc(=O)n3c2)CC1` [Cpd 407, 2-(3,4-dimethoxyphenyl)-9-methyl-7-[4-(propylamino)piperidin-1-yl]-4H-pyrido[1,2-a]pyrimidin-4-one], the melting point was 178 to 184 °C. Besides, in series [1], the EC (1.5-fold increase) is under 0.1 µM. For the same compound, the “maximum fold (Fold) increase” value in series [2] is “*** (a fold increase between >1.35 and ≤1.5 is indicated by three stars (***))”.
